Measurements published in PubChem BioAssay AID1645861 (Buhrlage Lab, Dana-Farber Cancer Institute and Novartis …, 2021).
Calls of active or inactive are those of the source.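 Rule for the calls: active = compounds whose peak USP7 inhibition across the dose series reached 30% or more; inactive = the rest.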

Biological target: Ubiquitin carboxyl-terminal hydrolase 7 (Homo sapiens) (UniProt Q93009)
Test: Ubiquitin-specific protease 7 DUB inhibitors, concentration-effect, biochemical, validation of primary hits (AID 1645861)
Conditions: purified USP7, Ub-rhodamine cleavage fluorescence, 60 min

Sequence of Ubiquitin carboxyl-terminal hydrolase 7 (Homo sapiens) (Q93009 whole entry, looked up): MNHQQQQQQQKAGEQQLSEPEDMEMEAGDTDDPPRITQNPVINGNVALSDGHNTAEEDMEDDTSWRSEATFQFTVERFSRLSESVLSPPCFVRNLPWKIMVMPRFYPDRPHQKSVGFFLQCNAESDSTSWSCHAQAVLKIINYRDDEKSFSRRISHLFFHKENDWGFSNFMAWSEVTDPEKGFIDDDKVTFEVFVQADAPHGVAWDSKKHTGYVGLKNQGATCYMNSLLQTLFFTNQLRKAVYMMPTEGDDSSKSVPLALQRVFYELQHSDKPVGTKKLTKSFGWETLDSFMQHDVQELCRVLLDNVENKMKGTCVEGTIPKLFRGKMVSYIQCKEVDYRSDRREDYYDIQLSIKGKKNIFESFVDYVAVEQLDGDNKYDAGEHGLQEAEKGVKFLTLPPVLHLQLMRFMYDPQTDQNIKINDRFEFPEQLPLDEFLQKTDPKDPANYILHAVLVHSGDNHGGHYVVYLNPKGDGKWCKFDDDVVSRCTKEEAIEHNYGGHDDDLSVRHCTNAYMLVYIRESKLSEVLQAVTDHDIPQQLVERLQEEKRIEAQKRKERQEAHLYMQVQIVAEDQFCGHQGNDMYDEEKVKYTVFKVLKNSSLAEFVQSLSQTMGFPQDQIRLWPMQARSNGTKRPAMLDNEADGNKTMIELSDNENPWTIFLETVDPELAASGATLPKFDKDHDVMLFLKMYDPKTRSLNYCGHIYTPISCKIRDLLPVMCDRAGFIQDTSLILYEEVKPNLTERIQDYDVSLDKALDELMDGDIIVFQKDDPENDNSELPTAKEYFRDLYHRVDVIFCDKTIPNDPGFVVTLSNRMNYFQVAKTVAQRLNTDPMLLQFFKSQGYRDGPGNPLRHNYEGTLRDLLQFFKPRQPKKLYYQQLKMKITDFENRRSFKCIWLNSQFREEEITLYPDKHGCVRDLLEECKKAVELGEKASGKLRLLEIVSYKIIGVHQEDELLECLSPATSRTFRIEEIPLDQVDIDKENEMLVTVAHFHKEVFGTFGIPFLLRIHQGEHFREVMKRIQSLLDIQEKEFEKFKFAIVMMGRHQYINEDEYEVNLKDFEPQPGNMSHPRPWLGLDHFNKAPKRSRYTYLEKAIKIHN

SMILES	IC50
COc1ccc(Cl)cc1NC(=O)Cn1c(=O)n(CCCCC(=O)NCCc2ccccc2)c(=O)c2ccccc21	> 50 µM (inactive)
N#Cc1c(-c2ccc(Cl)cc2)cc(-c2cccc(Br)c2)[nH]c1=O	> 50 µM (inactive)
O=C(Cc1ccc(-n2c(=O)c3ccccc3n(CC(=O)Nc3ccc(Cl)cc3Cl)c2=O)cc1)NCc1ccco1	> 50 µM (inactive)
O=C(Nc1ccccc1F)c1nc(-c2cn(-c3ccc(F)cc3)nn2)no1	> 50 µM (inactive)
O=C(Cn1c(=O)n(Cc2ccc(C(=O)NCc3ccco3)cc2)c(=O)c2ccccc21)Nc1ccc2c(c1)OCCO2	> 50 µM (inactive)
O=C(Nc1ccc(-c2cn3ccsc3n2)cc1)c1ccc(Cl)c([N+](=O)[O-])c1	39.5 µM
CCC(=O)N1c2ccccc2NC2=C(C(=O)CC(c3ccccc3OCc3ccccc3)C2)C1c1ccccc1 (configuration not stated)	> 50 µM (inactive)
CC(OC(=O)c1cc(S(=O)(=O)Nc2ccccc2F)ccc1Cl)C(=O)Nc1ccc([N+](=O)[O-])cc1C(F)(F)F (configuration not stated)	> 50 µM (inactive)
O=C1Cc2ccccc2C(=O)N1Cc1cccc(Cl)c1	> 50 µM (inactive)
Cc1ccc(-n2cc(-c3noc(C(=O)Nc4ccc(F)cc4C)n3)nn2)cc1	> 50 µM (inactive)
CCOc1ccc2c(c1)c(=O)c(C(=O)c1ccccc1)cn2CC(=O)Nc1ccc2c(c1)OCCO2	> 50 µM (inactive)
Cc1ccc2nc(CNc3ccc(F)cc3C)cc(=O)n2c1	> 50 µM (inactive)
Cc1ccc(S(=O)(=O)Nc2ccccc2C(=O)Nc2nc3ccc(Br)cc3s2)cc1	10 µM
CCCCCCCCCC(CCCCCCCCCC(=O)O)O[C@H]1O[C@@H](COC(C)=O)[C@H](O)[C@@H](O)[C@H]1OC(=O)CC(=O)O (some centres not stated)	> 50 µM (inactive)
O=c1cc(-c2ccc(O)c(O)c2)oc2cc(O[C@@H]3O[C@H](CO)[C@@H](O)[C@H](O)[C@H]3O)cc(O)c12	0.713 µM
Cc1ccc(Nc2nc(NCC(=O)Nc3cc(C)ccc3C)nc(Nc3ccc(C)cc3)n2)cc1	> 50 µM (inactive)
Cc1cc(OCC(=O)Nc2ccccc2C(=O)Nc2ccccc2)ccc1Cl	> 50 µM (inactive)
Cc1cc(NC(=O)c2cc(-c3cccnc3)n[nH]2)ccc1Br	48.6 µM
COc1ccc(NC(=O)c2cc(-c3cccnc3)n[nH]2)cc1Cl	> 50 µM (inactive)
COc1cccc(NC(=O)Cn2c3ccccc3n3c(=O)cc(-c4ccccc4)nc23)c1	> 50 µM (inactive)
O=C1CC(c2ccco2)Cc2[nH]c(=O)c(-c3nc(-c4ccc(Cl)cc4)cs3)cc21 (configuration not stated)	28.8 µM
O=C(c1ccccn1)N1CCC2(CC1)CC1(CO2)Nc2ccccc2-n2cccc21 (configuration not stated)	> 50 µM (inactive)

SMILES	IC50
CCCCCCCCCc1cc(OC(=O)c2c(CCCCCCCCC)cc(O)cc2O[C@@H]2O[C@H](CO)[C@@H](O)[C@H](O)[C@H]2O)cc(O)c1C(=O)O	5.09 µM
Cc1cc(NS(=O)(=O)c2ccc(NC(=O)c3ccc(N4CCCC4)c([N+](=O)[O-])c3)cc2)no1	> 50 µM (inactive)
COc1ccc(NC(=O)Cn2cc(C(=O)c3ccc(Cl)cc3)c(=O)c3cc(F)ccc32)cc1	47 µM
O=C(Nc1ccccc1C(=O)O)c1ccc(CSCc2ccccc2)cc1	> 50 µM (inactive)
Cn1nc(C(=O)N2CCC(c3ccccc3)C2)c2c1-c1ccsc1CC2 (configuration not stated)	> 50 µM (inactive)
O=C(O)CCCCCN1C(=O)CC(c2ccc(Cl)cc2)CC1=O	> 50 µM (inactive)
COC(=O)c1c(OC)cc2c(c1C)Oc1c(Cl)c(O)c(Cl)c(C)c1C(=O)O2	> 50 µM (inactive)
O=C(Cn1cccc(-c2nc(-c3ccccc3)no2)c1=O)Nc1ccccc1F	> 50 µM (inactive)
Cc1cc(=O)n(C)c2c(O)c3c(cc12)c(C)cc(=O)n3C	> 50 µM (inactive)
O=C(Cn1c(=O)c2sccc2n(CC(=O)OCc2ccccc2)c1=O)NCc1ccccc1Cl	> 50 µM (inactive)
Cc1ccc(Cn2c(=O)c3ncccc3n(CC(=O)NCc3ccc(F)cc3)c2=O)cc1	> 50 µM (inactive)
Cc1nnc(NC(=O)C2CCN(c3ccc(S(N)(=O)=O)cc3[N+](=O)[O-])CC2)o1	49.4 µM
Cc1cc(C)cc(NC(=O)Nc2ccccc2OCc2cc(=O)n3c(ncn3C(C)C)n2)c1	> 50 µM (inactive)
COc1ccc(C(=O)COC(=O)c2ccccc2NS(=O)(=O)c2ccc(O)c([N+](=O)[O-])c2)cc1	49.3 µM
CCc1ccc(NC(=O)C(C)OC(=O)/C=C/c2ccc(S(=O)(=O)Nc3cccc(S(N)(=O)=O)c3)cc2)cc1 (configuration not stated)	> 50 µM (inactive)
NS(=O)(=O)c1ccc(CNC(=O)c2ccc(Cl)c(S(=O)(=O)Nc3cc(Cl)ccc3Cl)c2)cc1	> 50 µM (inactive)
CCCCCCCc1cc(OC(=O)c2c(CCCCCCC)cc(O)cc2O[C@@H]2O[C@H](CO)[C@@H](O)[C@H](O)[C@H]2O)cc(O)c1C(=O)O	9.94 µM
COc1ccc(OC)c(NC(=O)Cn2c(=O)n(C3CCCCC3)c(=O)c3ccccc32)c1	> 50 µM (inactive)
COc1ccc(Cl)cc1NC(=O)c1nc(-c2cn(-c3ccccc3)nn2)no1	> 50 µM (inactive)
CCOc1ccc(-n2c(=O)c3sccc3n(CC(=O)Nc3cccc(C)c3)c2=O)cc1	> 50 µM (inactive)
O=C(c1cnc2[nH][nH]c(=O)c2c1)c1cc(Cl)cc(Cl)c1O	15.1 µM
O=C1c2c(O)cccc2C2(Oc3cccc4cccc(c34)O2)C2OC12 (configuration not stated)	> 50 µM (inactive)

SMILES	IC50
O=c1[nH]c2ccc(S(=O)(=O)Nc3ccc(O)c4ccccc34)cc2[nH]1	> 50 µM (inactive)
O=C(CSc1nnc2n(-c3ccccc3)c(=O)c3ccccc3n12)c1ccc(F)cc1	> 50 µM (inactive)
O=c1c(O)c(-c2ccc(O)c(O)c2)oc2cc(O)cc(O)c12	5.22 µM
O=c1c2ccccc2oc2nc(-c3cccs3)n(-c3ccccc3)c(=O)c12	> 50 µM (inactive)
COc1ccc(NC(=O)Cn2cc(C(=O)c3ccc(C)cc3)c(=O)c3ccccc32)cc1	> 50 µM (inactive)
O=C(Cn1c(=O)n(CC2CCC(C(=O)NCCc3ccccc3)CC2)c(=O)c2ccccc21)NCc1ccco1 (configuration not stated)	> 50 µM (inactive)
COc1ccc(NS(=O)(=O)c2cc(NC(=O)CC(=O)c3ccc([N+](=O)[O-])cc3)ccc2Cl)cc1	> 50 µM (inactive)
C[C@@H]1OC2=C(C(=O)c3cccc(O)c3C2=O)[C@H](O)[C@@H]1O	> 50 µM (inactive)
O=C1c2c(O)ccc(O)c2C2(Oc3cccc4cccc(c34)O2)C2OC12 (configuration not stated)	> 50 µM (inactive)
Cn1cc(NC(=O)Nc2cccc(C(F)(F)F)c2)c2ccccc2c1=O	> 50 µM (inactive)
CCOc1ccc(NC(=O)Cn2c(=O)n(CCC(=O)NCc3ccco3)c(=O)c3ccccc32)cc1	> 50 µM (inactive)
Cc1cccc(NC(=O)CSc2nc3c(cc2C#N)C(=O)CCC3)c1	> 50 µM (inactive)
CC(C)CC1NC(=O)C2CCCN2C1=O (configuration not stated)	> 50 µM (inactive)
CSc1ccc(CNC(=O)Cn2nc(C)c3c(C)n(-c4ccccc4)nc3c2=O)cc1	45.6 µM
C[C@H](Cc1cc2c(cc1O)OCO2)[C@@H](C)Cc1cc2c(cc1O)OCO2	> 50 µM (inactive)
CCOC(=O)c1ccc(NC(=O)Cn2c(=O)n(CC(=O)NCc3ccco3)c(=O)c3ccccc32)cc1	> 50 µM (inactive)
COc1ccc(OC)c(-c2cn3ccn(-c4ccc(F)c(Cl)c4)c(=O)c3n2)c1	> 50 µM (inactive)
COc1cc2c(=O)n(Cc3ccccc3)c(=O)n(CC(=O)N3CCCc4ccccc43)c2cc1OC	> 50 µM (inactive)
CCCCCCCC1OC(=O)Cc2cc(O)c(O)c(O)c21 (configuration not stated)	> 50 µM (inactive)
Cc1nn(-c2ccccc2)c2c1N=C1C(Cl)=CC(Cl)=CN1C21C(=O)Nc2ccccc21 (configuration not stated)	17.4 µM
CC(C)c1ccc(NC(=O)COC(=O)c2ccc(NS(=O)(=O)c3ccc4c(c3)OCCO4)cc2)cc1	> 50 µM (inactive)
NS(=O)(=O)c1cccc(NC(=O)/C=C/c2cn(-c3ccccc3)nc2-c2cccc([N+](=O)[O-])c2)c1	> 50 µM (inactive)

SMILES	IC50
O=C(CC1C(=O)Nc2nc3ccccc3n21)Nc1cccc2ccccc12 (configuration not stated)	> 50 µM (inactive)
COc1cn(-c2ccc(F)cc2)nc1C(=O)Nc1ccc(Cl)cc1Cl	> 50 µM (inactive)
Cc1cccc2nc(CSc3nc4ccc([N+](=O)[O-])cc4[nH]3)cn12	> 50 µM (inactive)
Cn1c2ccccc2c2ncn(CCCN3CCOCC3)c(=O)c21	> 50 µM (inactive)
Cc1nc(N2CCN(c3ccc(Cl)cc3)CC2)c2oc3ccccc3c2n1	> 50 µM (inactive)
Cn1c(=O)c2ncnnc2n(C)c1=O	> 50 µM (inactive)
O=c1cc(-c2ccc(O)c(O)c2)oc2cc(O)cc(O)c12	2.81 µM
Cc1ccc(NC(=O)c2ccc3nn(CC(=O)Nc4ccc(F)cc4F)c(=O)n3c2)cc1	> 50 µM (inactive)
CC(NC(=O)c1ccccc1)c1nc2ccccc2n1CC(=O)Nc1ccc(OC(F)(F)F)cc1 (configuration not stated)	> 50 µM (inactive)
COc1ccc(Sc2nc3ccccc3n3cnnc23)cc1	> 50 µM (inactive)
COc1cc2c(=O)n(CC3CCCO3)c(=O)n(CC(=O)c3ccc4c(c3)OCO4)c2cc1OC (configuration not stated)	> 50 µM (inactive)
COc1cc2c(=O)n(CCC(=O)NC3CCCC3)c(=O)n(CC(=O)Nc3cccc(Cl)c3)c2cc1OC	> 50 µM (inactive)
CCn1cc2c(n1)c(=O)n(Cc1ccccc1)c(=O)n2CC(=O)Nc1ccc(C(C)C)cc1	> 50 µM (inactive)
Oc1cccc2c(-c3ccc(O)c4c(O)cccc34)ccc(O)c12	> 50 µM (inactive)
O=C(Cn1c(=O)n(-c2ccc(CC(=O)NC3CCCC3)cc2)c(=O)c2ccccc21)Nc1ccccc1[N+](=O)[O-]	> 50 µM (inactive)
O=C1CC(c2nc3ccccc3n2CCOc2ccc(Cl)cc2)CN1c1ccccc1 (configuration not stated)	> 50 µM (inactive)
CCOc1ccc2c(c1)c(=O)c(C(=O)c1ccccc1)cn2CC(=O)Nc1ccc(Cl)cc1	41.6 µM
Cc1ccc(C(=O)NC(C)c2ccccc2)cc1NC(=O)c1nsc2ccccc12 (configuration not stated)	> 50 µM (inactive)
Cn1c2ccccc2c(=O)c2c(=O)n(Cc3ccco3)c(-c3ccccc3F)nc21	> 50 µM (inactive)
Cc1[nH]nc(NC(=O)C2COc3ccccc3O2)c1-c1ccccc1 (configuration not stated)	> 50 µM (inactive)
Cc1sc(NC(=O)Cn2nnc3ccccc32)nc1-c1ccc2c(c1)CCN2C(=O)c1ccccc1F	> 50 µM (inactive)
